Measurements: patent publication US11306102B2, “1,3-di-substituted ketene compound and application thereof” (BEBETTER MED INC., priority 2017, dated 2022)

Assays:
[1] = molecular target: T1, PPARγ (Homo sapiens, UniProt P37231); test: Hela cell/luciferase reporter gene method, PPARγ agonist activity; type: cell-based; settings: Hela cells, pPPRE3-TK-Luciferase reporter, 24 hrs incubation; read-out: agonistic activity on PPARγ (EC50)
T1 construct: expressed in transfected cells; host or cells: Hela cells
T1 sequence (P37231 1-505): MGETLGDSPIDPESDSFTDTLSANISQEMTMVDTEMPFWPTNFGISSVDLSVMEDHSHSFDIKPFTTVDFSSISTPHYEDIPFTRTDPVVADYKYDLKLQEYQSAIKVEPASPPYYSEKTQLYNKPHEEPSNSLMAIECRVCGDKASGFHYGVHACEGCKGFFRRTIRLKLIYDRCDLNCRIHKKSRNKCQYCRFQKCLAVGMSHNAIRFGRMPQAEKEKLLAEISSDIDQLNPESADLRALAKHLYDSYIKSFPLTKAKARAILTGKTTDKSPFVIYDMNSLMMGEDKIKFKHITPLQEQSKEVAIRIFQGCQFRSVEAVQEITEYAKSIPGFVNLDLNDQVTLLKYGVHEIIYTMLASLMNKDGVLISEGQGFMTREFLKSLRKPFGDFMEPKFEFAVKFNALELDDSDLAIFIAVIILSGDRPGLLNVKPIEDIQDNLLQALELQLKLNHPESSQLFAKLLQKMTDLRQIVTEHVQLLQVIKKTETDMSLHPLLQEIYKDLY
Description: (§1) This example measures the biological activity of a PPAR agonist using the Hela cell/luciferase reporter gene method.
(§2) The target plasmids PCMV PPARα (Ampicillin+), PCMV PPARγ (Ampicillin+), PCMV PPARδ (Ampicillin+), and pPPRE3-TK-Luciferase (Ampicillin+) were introduced into DH5a competent cells by heat shock treatment, respectively. After being incubated for 1 hour at 37° C. with shaking (180 rpm), the cells were inoculated on LB agar solid medium containing antibiotic Ampicillin, and invertedly cultured at 37° C. for 12-16 hours. Then the monoclonal colony cultured on the medium was taken and inoculated into LB liquid medium for expanded culture. The desired plasmid was extracted from the resulting bacterial solution with a Plasmid Midi Kit (Qiagen; #12143). The plasmid obtained by centrifugation was suspended in TE buffer, and the plasmid concentration was measured and the mixture was stored at −20° C. Hela cells in the exponential phase were seeded in 6-well plates (8-10^5 cells/well), and after 6-8 hours of culture, the cells were transfected using Lipofectamine® 3000 Transfection Reagent (Invitrogen; #L3000015). A plasmid containing a PPAR binding site (peroxisome proliferator response element, PPRE) and a firefly luciferase gene (pPPRE3-TK-Luciferase) and PPAR expression vector were co-transfected into a Hela cell with a total amount of plasmid DNA of 2.5 ug (the mass ratio of each PPAR expression vector is pPPRE:PPARα=6:1, pPPRE:PPARδ=8:1, and pPPRE:PPARγ=2:1) to construct a drug screening cell model for PPAR agonists. PPAR was binded to the ligand and then binded to the peroxisome proliferator response element (PPRE), thereby initiating downstream firefly luciferase expression and its expression intensity was directly proportional to the degree of PPAR activation. The cells after 24 hours transfection were prepared into a cell suspension with a cell concentration of […] by a complete culture solution, and seeded into a 96-well plate with 100 ul per well. After overnight culture, the medium was changed to a medium containing 1% FBS. 10 mM candidate compound stock (1000×) were 4-fold diluted in DMSO for 8 points, then supplemented with medium containing 1% FBS to a final concentration of 50 uM (5×) by addition of 25 μl of 5× compound diluent to each well in different concentration gradients and incubated under 37° C., 5% CO2 incubator for 24 hrs. The 96-well plate was taken out and 30 μl of Bright-Glo™ Luciferase Assay System (Promega #E2620) was added to each well. The Luciferase luminescence intensity was measured by a SynergyH1 full-function microplate detector. The obtained data was used to calculate EC50 using GraphPad Prism 5.0 software to determine the biological activity of the compound.
(§3) The agonistic activity of the compounds synthesized in Examples 1-41 on PPAR is represented by EC50 (see Table 1). EC50 refers to the drug concentration at which the compound has a 50% increase in the agonistic activity of the measured PPAR. The compound numbers in Table 1 correspond to the compound numbers in Examples 1-41.

[2] = molecular target: T2, PPARα (Homo sapiens, UniProt Q07869); test: Hela cell/luciferase reporter gene method, PPARα agonist activity; type: cell-based; settings: Hela cells, pPPRE3-TK-Luciferase reporter, 24 hrs incubation; read-out: agonistic activity on PPAα (EC50)
T2 construct: expressed in transfected cells; host or cells: Hela cells
T2 sequence (Q07869 1-468): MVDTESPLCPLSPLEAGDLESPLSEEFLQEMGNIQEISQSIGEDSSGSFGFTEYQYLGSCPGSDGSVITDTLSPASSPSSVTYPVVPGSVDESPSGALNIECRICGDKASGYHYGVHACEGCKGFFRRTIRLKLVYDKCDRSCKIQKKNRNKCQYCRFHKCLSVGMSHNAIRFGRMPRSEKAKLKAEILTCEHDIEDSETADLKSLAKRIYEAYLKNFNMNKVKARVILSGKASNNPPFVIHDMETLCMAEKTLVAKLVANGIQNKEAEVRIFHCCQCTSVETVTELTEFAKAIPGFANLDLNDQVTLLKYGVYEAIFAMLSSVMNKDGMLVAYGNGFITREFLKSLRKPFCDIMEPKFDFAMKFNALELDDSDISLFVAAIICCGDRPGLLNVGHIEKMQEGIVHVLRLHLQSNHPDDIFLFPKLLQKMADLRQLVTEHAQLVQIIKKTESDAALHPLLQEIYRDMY
Description: as §1, §2, §3

SMILES	EC50 [1]	EC50 [2]
COc1ccc(C(=O)/C=C/c2cc(C)c(OC(C)(C)C(=O)O)c(C)c2)c2occc12 [Compound 1, (E)-2-(4-(3-(4-methoxybenzofuran-7-yl)-3-oxoprop-1-en-1-yl)-2,6-dimethylphenoxy)-2-methylpropanoic acid]	172 nM	420 nM
Cc1cc(/C=C/C(=O)c2ccc(SCC(C)C)c3ccoc23)cc(C)c1OC(C)(C)C(=O)O [Compound 9, (E)-2-(4-(3-(4-(isobutylthio)benzofuran-7-yl)-3-oxoprop-1-en-1-yl)-2,6-dimethylphenoxy)-2-methylpropanoic acid]		46.8 nM
CSc1ccc(C(=O)/C=C/c2cc(C)c(OC(C)(C)C(=O)O)c(C)c2)c2oc(C)nc12 [Compound 20, (E)-2-(2,6-dimethyl-4-(3-(2-methyl-4-(methylthio)benzo[d]oxazol-7-yl)-3-oxoprop-1-en-1-yl)phenoxy)-2-methylpropanoic acid]		165 nM
CSc1ccc2cc(C(=O)/C=C/c3cc(C)c(OCC(=O)O)c(C)c3)oc2c1 [Compound 57, (E)-2-(2,6-dimethyl-4-(3-(6-(methylthio)benzofuran-2-yl)-3-oxoprop-1-en-1-yl)phenoxy)acetic acid]		1180 nM
CSc1ccc2c(C(C)C)c(C(=O)/C=C/c3cc(C)c(OC(C)(C)C(=O)O)c(C)c3)oc2c1 [Compound 64, (E)-2-(4-(3-(3-isopropyl-6-(methylthio)benzofuran-2-yl)-3-oxoprop-1-en-1-yl)-2,6-dimethylphenoxy)-2-methylpropanoic acid]		105 nM
CSc1ccc2c(C(F)(F)F)c(C(=O)/C=C/c3cc(C)c(OC(C)(C)C(=O)O)c(C)c3)oc2c1 [Compound 73, (E)-2-(2,6-dimethyl-4-(3-(6-(methylthio)-3-(trifluoromethyl)benzofuran-2-yl)-3-oxoprop-1-en-1-yl)phenoxy)-2-methylpropanoic acid]		3.8 nM
CCCSc1ccc2c(C)c(C(=O)/C=C/c3cc(C)c(OC(C)(C)C(=O)O)c(C)c3)oc2c1 [Compound 75, (E)-2-(2,6-dimethyl-4-(3-(3-methyl-6-(propylthio)benzofuran-2-yl)-3-oxoprop-1-en-1-yl)phenoxy)-2-methylpropanoic acid]		121 nM
Cc1cc(/C=C/C(=O)c2oc3cc(SCC(C)C)ccc3c2C)cc(C)c1OC(C)(C)C(=O)O [Compound 76, (E)-2-(4-(3-(6-(isobutylthio)-3-methylbenzofuran-2-yl)-3-oxoprop-1-en-1-yl)-2,6-dimethylphenoxy)-2-methylpropanoic acid]		58.9 nM
Cc1cc(/C=C/C(=O)c2oc3cc(SC(C)C)ccc3c2C)cc(C)c1OC(C)(C)C(=O)O [Compound 77, (E)-2-(4-(3-(6-(isopropylthio)-3-methylbenzofuran-2-yl)-3-oxoprop-1-en-1-yl)-2,6-dimethylphenoxy)-2-methylpropanoic acid]		121 nM
COc1cc(/C=C/C(=O)c2cc3ccc(SC)cc3o2)cc(OC)c1OC(C)(C)C(=O)O [Compound 99, (E)-2-(2,6-dimethoxy-4-(3-(6-(methylthio)benzofuran-2-yl)-3-oxoprop-1-en-1-yl)phenoxy)-2-methylpropanoic acid]		52.1 nM
CSc1ccc2cc(C(=O)/C=C/c3cc(C(C)C)c(OC(C)(C)C(=O)O)c(C(C)C)c3)oc2c1 [Compound 101, (E)-2-(2,6-diisopropyl-4-(3-(6-(methylthio)benzofuran-2-yl)-3-oxoprop-1-en-1-yl)phenoxy)-2-methylpropanoic acid]		477 nM
COc1cc(/C=C/C(=O)c2oc3cc(SC)ccc3c2C)cc(OC)c1OC(C)(C)C(=O)O [Compound 102, (E)-2-(2,6-dimethoxy-4-(3-(3-methyl-6-(methylthio)benzofuran-2-yl)-3-oxoprop-1-en-1-yl)phenoxy)-2-methylpropanoic acid]		191 nM
CSc1ccc2c(C)c(C(=O)/C=C/c3cc(C(C)C)c(OC(C)(C)C(=O)O)c(C(C)C)c3)oc2c1 [Compound 104, (E)-2-(2,6-diisopropyl-4-(3-(3-methyl-6-(methylthio)benzofuran-2-yl)-3-oxoprop-1-en-1-yl)phenoxy)-2-methylpropanoic acid]		382 nM

Second part, the molecule after the results:

EC50 [1]	EC50 [2]	SMILES
	948 nM	CNc1ccc(C(=O)/C=C/c2cc(C)c(OC(C)(C)C(=O)O)c(C)c2)c2occc12 [Compound 2, (E)-2-(2,6-dimethyl-4-(3-(4-(methylamino)benzofuran-7-yl)-3-oxoprop-1-en-1-yl)phenoxy)-2-methylpropanoic acid]
	366 nM	Cc1cc(/C=C/C(=O)c2ccc3scnc3c2)cc(C)c1OC(C)(C)C(=O)O [Compound 39, (E)-2-(4-(3-(benzo[d]thiazol-5-yl)-3-oxoprop-1-en-1-yl)-2,6-dimethylphenoxy)-2-methylpropanoic acid]
	7.67 nM	CCOc1ccc2cc(C(=O)/C=C/c3cc(C)c(OC(C)(C)C(=O)O)c(C)c3)oc2c1 [Compound 44, (E)-2-(4-(3-(6-ethoxylbenzofuran-2-yl)-3-oxoprop-1-en-1-yl)-2,6-dimethylphenoxy)-2-methylpropanoic acid]
	874 nM	Cc1cc(/C=C/C(=O)c2cc3ccccc3o2)cc(C)c1OC(C)(C)C(=O)O [Compound 49, (E)-2-(4-(3-(benzofuran-2-yl)-3-oxoprop-1-en-1-yl)-2,6-dimethylphenoxy)-2-methylpropanoic acid]
	352 nM	CSc1cccc2cc(C(=O)/C=C/c3cc(C)c(OC(C)(C)C(=O)O)c(C)c3)oc12 [Compound 58, (E)-2-(2,6-dimethyl-4-(3-(7-(methylthio)benzofuran-2-yl)-3-oxoprop-1-en-1-yl)phenoxy)-2-methylpropanoic acid]
	70.2 nM	CSc1ccc2c(C)c(C(=O)/C=C/c3cc(C)c(OC(C)(C)C(=O)O)c(C)c3)sc2c1 [Compound 82, (E)-2-(2,6-dimethyl-4-(3-(3-methyl-6-(methylthio)benzo[b]thiophen-2-yl)-3-oxoprop-1-en-1-yl)phenoxy)-2-methylpropanoic acid]
	2440 nM	CSc1ccc2cc(C(=O)/C=C/c3cc(C)c(OC(C)(C)C(=O)O)c(C)c3)[nH]c2c1 [Compound 88, (E)-2-(2,6-dimethyl-4-(3-(6-(methylthio)-1H-indol-2-yl)-3-oxoprop-1-en-1-yl)phenoxy)-2 methylpropanoic acid]
	41.9 nM	CCSc1ccc2c(C)c(C(=O)/C=C/c3cc(C)c(OC(C)(C)C(=O)O)c(C)c3)sc2c1 [Compound 94, (E)-2-(4-(3-(6-(ethylthio)-3-methylbenzo[b]thiophen-2-yl)-3-oxoprop-1-en-1-yl)-2,6-dimethylphenoxy)-2-methylpropanoic acid]
